Assay [1] concerns the target T1, Alpha-1A adrenergic receptor (Homo sapiens, UniProt P35348).
T1 sequence (P35348 whole entry): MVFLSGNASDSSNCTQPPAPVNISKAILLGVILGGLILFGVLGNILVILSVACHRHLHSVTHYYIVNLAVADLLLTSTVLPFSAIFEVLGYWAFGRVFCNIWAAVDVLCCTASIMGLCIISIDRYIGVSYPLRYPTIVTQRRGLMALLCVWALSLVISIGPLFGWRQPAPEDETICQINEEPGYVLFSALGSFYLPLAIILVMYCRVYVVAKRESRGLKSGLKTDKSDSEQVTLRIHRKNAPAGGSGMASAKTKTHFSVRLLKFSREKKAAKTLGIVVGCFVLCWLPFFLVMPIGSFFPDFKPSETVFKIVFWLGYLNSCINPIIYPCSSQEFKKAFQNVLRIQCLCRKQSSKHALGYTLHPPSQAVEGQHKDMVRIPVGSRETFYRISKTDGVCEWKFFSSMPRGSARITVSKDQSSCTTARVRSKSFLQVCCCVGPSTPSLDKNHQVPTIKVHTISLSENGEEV
In kind it is functional, cell-based.

In assay [2] the target is T2, Muscarinic acetylcholine receptor M1 (Homo sapiens, UniProt P11229).
T2 sequence (P11229 whole entry): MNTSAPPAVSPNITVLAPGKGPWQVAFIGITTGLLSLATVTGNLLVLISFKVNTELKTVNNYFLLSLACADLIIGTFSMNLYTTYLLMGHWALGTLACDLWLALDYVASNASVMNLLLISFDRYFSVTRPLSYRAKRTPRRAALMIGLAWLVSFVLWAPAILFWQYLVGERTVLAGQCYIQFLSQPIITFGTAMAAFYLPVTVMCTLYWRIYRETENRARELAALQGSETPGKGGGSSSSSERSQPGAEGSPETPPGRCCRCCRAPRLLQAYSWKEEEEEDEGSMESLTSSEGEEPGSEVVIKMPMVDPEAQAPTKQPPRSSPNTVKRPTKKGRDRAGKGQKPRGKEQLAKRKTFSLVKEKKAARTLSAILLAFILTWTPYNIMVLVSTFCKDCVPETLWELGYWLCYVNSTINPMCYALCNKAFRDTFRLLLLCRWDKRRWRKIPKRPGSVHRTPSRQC
In kind it is functional, cell-based.

In assay [3] the target is Prostaglandin G/H synthase 1 (Homo sapiens, UniProt P23219). In kind it is functional.
In assay [4] the target is Sodium-dependent noradrenaline transporter (Homo sapiens, UniProt P23975).
Assay [5] deals with T3, Alpha-2B adrenergic receptor (Homo sapiens, UniProt P18089).
T3 sequence (P18089 whole entry): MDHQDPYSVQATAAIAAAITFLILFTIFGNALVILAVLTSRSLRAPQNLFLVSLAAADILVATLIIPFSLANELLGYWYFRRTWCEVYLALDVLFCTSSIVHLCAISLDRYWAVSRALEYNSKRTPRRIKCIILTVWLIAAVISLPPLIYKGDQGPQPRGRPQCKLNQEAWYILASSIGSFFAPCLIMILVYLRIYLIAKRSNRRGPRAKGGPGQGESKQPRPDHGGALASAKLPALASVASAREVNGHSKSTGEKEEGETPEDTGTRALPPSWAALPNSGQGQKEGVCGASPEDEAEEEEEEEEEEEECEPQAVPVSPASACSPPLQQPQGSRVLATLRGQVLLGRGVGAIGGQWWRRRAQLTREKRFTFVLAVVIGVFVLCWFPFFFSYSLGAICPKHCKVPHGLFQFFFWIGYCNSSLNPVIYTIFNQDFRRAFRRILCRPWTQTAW

Assay [6] deals with T2, Muscarinic acetylcholine receptor M1. In kind it is functional.
Assay [7] concerns the target Muscarinic acetylcholine receptor M3 (Homo sapiens, UniProt P20309).
In another assay the target is Cannabinoid receptor 1 (Homo sapiens, UniProt P21554). In kind it is functional, cell-based.
A further assay has as its target T4, Endothelin-1 receptor (Homo sapiens, UniProt P25101).
T4 sequence (P25101 whole entry): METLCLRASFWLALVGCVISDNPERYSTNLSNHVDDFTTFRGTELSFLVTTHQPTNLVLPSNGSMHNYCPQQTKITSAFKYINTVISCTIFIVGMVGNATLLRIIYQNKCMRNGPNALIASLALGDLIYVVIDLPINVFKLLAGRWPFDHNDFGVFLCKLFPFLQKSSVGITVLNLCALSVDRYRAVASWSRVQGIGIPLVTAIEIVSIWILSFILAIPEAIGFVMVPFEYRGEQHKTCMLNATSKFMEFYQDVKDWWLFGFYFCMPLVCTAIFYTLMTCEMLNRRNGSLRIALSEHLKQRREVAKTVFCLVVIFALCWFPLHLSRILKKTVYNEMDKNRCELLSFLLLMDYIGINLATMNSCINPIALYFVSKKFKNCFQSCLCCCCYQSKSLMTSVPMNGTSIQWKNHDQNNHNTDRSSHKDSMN

Assay [8] has as its target Gamma-aminobutyric acid receptor subunit alpha-1 (Rattus norvegicus, UniProt P62813). In kind it is functional.
The target of assay [9] is T5, 5-hydroxytryptamine receptor 1A (Homo sapiens, UniProt P08908).
T5 sequence (P08908 whole entry): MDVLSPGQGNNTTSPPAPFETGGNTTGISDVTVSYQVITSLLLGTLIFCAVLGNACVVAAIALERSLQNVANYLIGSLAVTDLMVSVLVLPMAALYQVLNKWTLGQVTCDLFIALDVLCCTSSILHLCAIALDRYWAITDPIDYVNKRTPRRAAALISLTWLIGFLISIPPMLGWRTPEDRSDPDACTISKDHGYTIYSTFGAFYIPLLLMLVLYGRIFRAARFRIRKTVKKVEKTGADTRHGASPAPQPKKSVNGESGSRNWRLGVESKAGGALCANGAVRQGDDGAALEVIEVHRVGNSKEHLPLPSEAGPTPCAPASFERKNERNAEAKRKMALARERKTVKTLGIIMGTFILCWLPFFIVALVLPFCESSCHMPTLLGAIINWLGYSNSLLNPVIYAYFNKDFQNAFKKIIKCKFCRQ
In kind it is functional, cell-based.

The next assay addresses Mu-type opioid receptor (Homo sapiens, UniProt P35372). Briefly: biochemical. In kind it is functional.

A value given as a limit tells only on which side of the number the result lay.
Note: assay procedure not described here.

Prostaglandin G/H synthase 1, sequence (P23219 whole entry): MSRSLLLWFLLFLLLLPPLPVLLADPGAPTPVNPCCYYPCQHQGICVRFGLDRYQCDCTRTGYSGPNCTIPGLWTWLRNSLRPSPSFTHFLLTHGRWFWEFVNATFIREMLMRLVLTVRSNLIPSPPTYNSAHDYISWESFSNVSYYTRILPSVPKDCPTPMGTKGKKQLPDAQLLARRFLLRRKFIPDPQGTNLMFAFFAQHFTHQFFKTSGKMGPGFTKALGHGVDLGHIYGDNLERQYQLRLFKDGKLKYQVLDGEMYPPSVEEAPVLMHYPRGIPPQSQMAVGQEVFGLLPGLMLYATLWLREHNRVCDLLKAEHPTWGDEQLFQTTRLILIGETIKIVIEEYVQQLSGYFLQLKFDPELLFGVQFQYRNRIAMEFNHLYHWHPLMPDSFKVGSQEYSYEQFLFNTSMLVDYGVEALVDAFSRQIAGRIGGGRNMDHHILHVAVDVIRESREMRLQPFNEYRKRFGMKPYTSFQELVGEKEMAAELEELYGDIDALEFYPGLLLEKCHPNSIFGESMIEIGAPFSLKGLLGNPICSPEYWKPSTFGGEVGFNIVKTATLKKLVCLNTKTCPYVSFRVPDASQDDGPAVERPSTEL
Sodium-dependent noradrenaline transporter, sequence (P23975 whole entry): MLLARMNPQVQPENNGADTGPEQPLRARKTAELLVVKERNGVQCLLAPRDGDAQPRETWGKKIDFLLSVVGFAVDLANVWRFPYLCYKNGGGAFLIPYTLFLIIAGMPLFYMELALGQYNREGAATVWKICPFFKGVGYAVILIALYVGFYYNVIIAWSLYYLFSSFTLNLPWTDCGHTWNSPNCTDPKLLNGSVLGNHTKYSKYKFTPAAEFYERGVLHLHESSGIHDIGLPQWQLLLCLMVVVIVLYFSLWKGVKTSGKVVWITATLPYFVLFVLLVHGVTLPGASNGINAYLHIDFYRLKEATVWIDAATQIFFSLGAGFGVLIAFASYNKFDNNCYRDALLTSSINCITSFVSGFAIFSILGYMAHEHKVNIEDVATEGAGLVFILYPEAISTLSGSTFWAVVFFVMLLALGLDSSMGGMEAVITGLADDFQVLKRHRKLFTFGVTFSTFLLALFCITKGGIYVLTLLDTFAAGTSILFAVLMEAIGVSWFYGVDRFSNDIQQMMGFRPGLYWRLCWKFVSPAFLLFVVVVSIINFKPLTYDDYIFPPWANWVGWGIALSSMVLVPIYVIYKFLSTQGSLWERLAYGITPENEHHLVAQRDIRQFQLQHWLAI
Mu-type opioid receptor, sequence (P35372 whole entry): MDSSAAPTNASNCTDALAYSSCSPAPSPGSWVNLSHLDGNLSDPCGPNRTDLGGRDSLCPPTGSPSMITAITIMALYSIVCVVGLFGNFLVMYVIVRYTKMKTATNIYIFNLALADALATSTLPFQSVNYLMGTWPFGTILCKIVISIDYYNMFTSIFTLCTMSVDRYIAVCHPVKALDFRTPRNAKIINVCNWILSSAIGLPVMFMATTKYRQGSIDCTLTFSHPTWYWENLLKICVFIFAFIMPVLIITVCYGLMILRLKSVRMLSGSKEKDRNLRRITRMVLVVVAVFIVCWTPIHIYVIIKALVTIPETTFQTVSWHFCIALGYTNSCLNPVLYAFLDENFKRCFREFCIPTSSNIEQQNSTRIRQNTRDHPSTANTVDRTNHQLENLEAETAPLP
Cannabinoid receptor 1, sequence (P21554 whole entry): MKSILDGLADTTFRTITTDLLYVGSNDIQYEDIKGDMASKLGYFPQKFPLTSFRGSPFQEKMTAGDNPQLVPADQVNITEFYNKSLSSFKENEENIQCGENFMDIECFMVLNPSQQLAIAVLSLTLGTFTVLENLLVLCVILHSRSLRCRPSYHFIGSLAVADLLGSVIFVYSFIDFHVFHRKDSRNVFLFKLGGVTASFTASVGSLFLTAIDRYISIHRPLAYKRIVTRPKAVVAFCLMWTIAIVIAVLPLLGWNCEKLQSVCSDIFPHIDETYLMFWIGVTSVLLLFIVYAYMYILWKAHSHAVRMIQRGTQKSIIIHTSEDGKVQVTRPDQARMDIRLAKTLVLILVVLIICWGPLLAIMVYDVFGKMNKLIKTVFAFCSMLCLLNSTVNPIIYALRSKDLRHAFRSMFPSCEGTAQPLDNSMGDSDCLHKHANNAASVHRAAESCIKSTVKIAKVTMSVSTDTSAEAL
Gamma-aminobutyric acid receptor subunit alpha-1, sequence (P62813 whole entry): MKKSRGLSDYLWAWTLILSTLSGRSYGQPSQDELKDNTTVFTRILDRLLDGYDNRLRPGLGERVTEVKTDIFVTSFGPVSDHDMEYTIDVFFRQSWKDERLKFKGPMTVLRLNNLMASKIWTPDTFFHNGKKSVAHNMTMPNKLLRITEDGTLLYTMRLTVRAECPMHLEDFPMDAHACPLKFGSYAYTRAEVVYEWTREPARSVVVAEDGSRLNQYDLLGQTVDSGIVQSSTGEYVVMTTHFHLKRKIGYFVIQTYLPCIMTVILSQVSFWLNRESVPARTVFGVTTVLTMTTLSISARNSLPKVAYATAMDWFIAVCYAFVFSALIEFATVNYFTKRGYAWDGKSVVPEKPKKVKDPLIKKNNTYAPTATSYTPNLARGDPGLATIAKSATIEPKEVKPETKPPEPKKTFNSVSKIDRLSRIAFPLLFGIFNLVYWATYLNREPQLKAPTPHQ
Muscarinic acetylcholine receptor M3, sequence (P20309 whole entry): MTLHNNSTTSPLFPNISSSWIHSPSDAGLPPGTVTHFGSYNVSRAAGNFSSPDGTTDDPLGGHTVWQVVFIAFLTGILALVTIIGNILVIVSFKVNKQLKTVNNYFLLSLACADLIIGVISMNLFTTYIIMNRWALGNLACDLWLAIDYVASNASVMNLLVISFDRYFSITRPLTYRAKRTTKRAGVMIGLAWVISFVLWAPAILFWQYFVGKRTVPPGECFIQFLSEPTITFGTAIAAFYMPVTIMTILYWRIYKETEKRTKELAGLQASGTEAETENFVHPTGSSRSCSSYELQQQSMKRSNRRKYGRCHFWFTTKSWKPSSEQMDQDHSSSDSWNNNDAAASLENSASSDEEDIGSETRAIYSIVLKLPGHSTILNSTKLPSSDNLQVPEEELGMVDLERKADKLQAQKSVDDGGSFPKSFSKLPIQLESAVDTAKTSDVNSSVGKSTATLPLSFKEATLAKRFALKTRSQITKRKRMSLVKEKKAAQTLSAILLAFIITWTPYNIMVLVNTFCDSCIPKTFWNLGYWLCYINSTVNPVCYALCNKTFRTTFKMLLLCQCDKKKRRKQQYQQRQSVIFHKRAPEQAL

The AC50 is the concentration giving half of the maximal activity seen. As for `C=CCSCC1Nc2cc(Cl)c(S(N)(=O)=O)cc2S(=O)(=O)N1` (stereo not given) [ALTHIAZIDE], the AC50 in assay [1], in [2], in [3] and in assay [4] was > 30 µM in each case.
In the case of `CCN(CCCc1ccccc1)CCCc1ccccc1` [ALVERINE], the AC50 in [1] is 0.978 µM; in assay [2] it was > 30 µM; in assay [3], > 30 µM; in assay [4] it was 1.15 µM.
`COc1cc(N2CCC(N3CCN(C)CC3)CC2)ccc1Nc1ncc(Cl)c(Nc2ccccc2P(C)(C)=O)n1` [BRIGATINIB]: the AC50 was > 30 µM in assay [1], > 30 µM in assay [2], 26.3 µM in assay [3] and > 30 µM in assay [4].
On to `CN(C)CCOC(c1ccccc1)c1ccc(Br)cc1` (stereo not given) [BROMODIPHENHYDRAMINE], for which the AC50 in assay [1] was > 10 µM; in assay [2], > 30 µM; in [3] it was > 30 µM; in [4] it was 4.22 µM.
On to `NC(=O)OCC(O)COc1ccc(Cl)cc1` (stereo not given) [CHLORPHENESIN CARBAMATE], for which the AC50 in assay [1], in [2], in [3] and in assay [4] was > 30 µM in each case.
For `CCN(CC)C(=S)S` [DITIOCARB], the AC50 is > 1 µM in assay [1], > 30 µM in [2], 10.3 µM in [3] and > 30 µM in assay [4].
For `CCC(=O)O[C@]1(C(=O)SCF)[C@H](C)C[C@H]2[C@@H]3C[C@H](F)C4=CC(=O)C=C[C@]4(C)[C@@]3(F)[C@@H](O)C[C@@]21C` [FLUTICASONE PROPIONATE], the AC50 (in assay [1]; in [5]; in [2]; in assay [6]; in assay [7]; on Cannabinoid receptor 1) was > 30 µM each time. Further, the AC50 is > 30 µM on Endothelin-1 receptor; > 30 µM in [8]; > 10 µM in assay [9]; > 30 µM on Mu-type opioid receptor; > 30 µM in assay [3]; > 30 µM in assay [4].
As to `CCC(=O)O[C@]1(C(=O)CCl)[C@@H](C)C[C@H]2[C@@H]3C[C@H](F)C4=CC(=O)C=C[C@]4(C)[C@@]3(F)[C@@H](O)C[C@@]21C` [HALOBETASOL PROPIONATE], the AC50 in [1] was 13.1 µM; in assay [2] it was > 30 µM; in assay [3] it was > 30 µM; in assay [4] it was > 30 µM.
Consider `CC(N)Cc1ccc(O)cc1` (stereo not given) [HYDROXYAMPHETAMINE], for which the AC50 in [1] is > 30 µM; in assay [2] it was > 30 µM; in assay [3], > 30 µM; in assay [4], 9.66 µM.
Turning to `Cc1cc(NC(=O)C2=C(O)c3ccccc3S(=O)(=O)N2C)no1` [ISOXICAM], the AC50 in assay [1], in [2], in [3] and in assay [4] was > 30 µM in each case.
For the molecule `COc1cc2c(cc1OC)CC(=O)N(CCCN(C)C[C@H]1Cc3cc(OC)c(OC)cc31)CC2` [IVABRADINE], the AC50 in assay [1], in [2], in assay [3] and in assay [4] was > 30 µM each time.
Regarding `CN1CCN(C2=Nc3ccccc3Oc3ccc(Cl)cc32)CC1` [LOXAPINE], the AC50 in assay [1] is 0.0734 µM; in assay [2], > 30 µM; in assay [6], 0.794 µM; at Cannabinoid receptor 1, > 30 µM; at Endothelin-1 receptor, > 30 µM; in assay [8], > 10 µM. In addition, the AC50 in assay [9] is > 10 µM; at Mu-type opioid receptor, > 30 µM; in assay [3] it was > 30 µM; in [4], 0.482 µM.
Turning to `CN1C(=O)/C(=N\NC(N)=S)c2ccccc21` [METHISAZONE], the AC50 in [1] is 13.1 µM; in assay [2] it was 26.4 µM; in assay [3], > 30 µM; in assay [4], > 30 µM.
Take `CCCc1nc(C(C)(C)O)c(C(=O)O)n1Cc1ccc(-c2ccccc2-c2nnn[nH]2)cc1` [OLMESARTAN]: the AC50 in assay [1], in [2], in assay [3] and in [4] was > 30 µM in each case.
In the case of `NCC(CC(=O)O)c1ccccc1` (stereo not given) [PHENIBUT], the AC50 in assay [1], in assay [2], in assay [3] and in [4] was > 30 µM in each case.
As to `CC[C@@H]([C@H](C)O)n1ncn(-c2ccc(N3CCN(c4ccc(OC[C@@H]5CO[C@@](Cn6cncn6)(c6ccc(F)cc6F)C5)cc4)CC3)cc2)c1=O` [POSACONAZOLE], the AC50 in assay [1] was > 1 µM; in [5], > 30 µM; in [2] it was > 30 µM; in assay [6], > 30 µM; in assay [3], > 30 µM; in assay [4], > 30 µM.
Take `Cc1ncc(COP(=O)(O)O)c(C=O)c1O` [PYRIDOXAL PHOSPHATE ANHYDROUS]: the AC50 in assay [1] was > 30 µM; in assay [2], > 30 µM; in assay [3], 6.68 µM; in assay [4], > 30 µM.
Turning to `c1ccc2c(c1)CCc1ccccc1N2C1CN2CCC1CC2` (stereo not given) [QUINUPRAMINE], the AC50 is 2.41 µM in [1], > 30 µM in [2], > 30 µM in assay [3] and 4.32 µM in [4].
On to `C[C@H](Cc1cc2c(c(C(N)=O)c1)N(CCCO)CC2)NCCOc1ccccc1OCC(F)(F)F` [SILODOSIN], for which the AC50 in assay [1] is 0.003 µM; in assay [2] it was > 30 µM; in [3], 15 µM; in assay [4] it was > 30 µM.
In the case of `CC1=CCC(C(C)(C)O)CC1O` (stereo not given) [SOBREROL], the AC50 in assay [1], in assay [2], in assay [3] and in assay [4] was > 30 µM throughout.
Turning to `CCOC(=O)N1CSC[C@H]1C(=O)O` [TELMESTEINE], the AC50 in assay [1], in assay [2], in assay [3] and in assay [4] was > 30 µM each time.

These data come from ChEMBL document CHEMBL5291721, “A preclinical secondary pharmacology resource illuminates target-adverse drug reaction associations of marketed drugs” (Nat Commun, 2023).
